Measurements as given in the supplement of paper PMC11061612.

Legend:
SK-N-SH (Neuroblastoma) = assay: Bliss excess, mean over the matrix (fraction); higher = more synergy
Outline: (§1)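 Cell lines in DMEM/F12 or RPMI with 10% FBS were plated in 1536-well plates, held 24 hours at 37°C, 5% CO2, then given two-drug dose matrices for 72 hours (DMSO typically 0.2%). Viability was read by CellTiter-Glo 2.0 luminescence and scaled as inhibition from 0 (vehicle wells) to 1 (blank wells). Combination Emax is the second-highest inhibition in the matrix; Bliss excess is observed combination effect minus expected EA + EB − EA·EB, EA and EB being single-agent effects.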

[1] = system: CPC-N (Small Cell Lung Carcinoma); assay: as above
Outline: as §1

[2] = system: C-33-A (Cervical Carcinoma); assay: as above
Outline: as §1

[3] = system: SKG-IIIa (Cervical Carcinoma); assay: as above
Outline: as §1

[4] = system: LS-1034 (Colorectal Carcinoma); assay: as above
Outline: as §1

[5] = system: MS-1 (Small Cell Lung Carcinoma); assay: as above
Outline: as §1

NCI-H226 (Mesothelioma) = assay: as above
Outline: as §1

ES6 (Ewing's Sarcoma) [6] = assay: as above
Outline: as §1

[7] = system: T84 (Colorectal Carcinoma); assay: as above
Outline: as §1

IST-MEL1 (Melanoma) [8] = assay: as above
Outline: as §1

[9] = system: SCC-4 (Oral Cavity Carcinoma); assay: as above
Outline: as §1

[10] = system: NAMALWA (Burkitt's Lymphoma); assay: as above
Outline: as §1

[11] = system: MDA-MB-415 (Breast Carcinoma); assay: as above
Outline: as §1

[12] = system: IA-LM (Non-Small Cell Lung Carcinoma); assay: as above
Outline: as §1

[13] = system: CPC-N (Small Cell Lung Carcinoma); assay: combination Emax (second highest fraction inhibited in the dose matrix, 72 h); higher = more inhibition; extreme values may be limits of the assay
Outline: as §1

[14] = system: MONO-MAC-6 (Acute Myeloid Leukemia); assay: as above
Outline: as §1

[15] = system: MS-1 (Small Cell Lung Carcinoma); assay: as above
Outline: as §1

ES6 (Ewing's Sarcoma) [16] = assay: as above
Outline: as §1

IST-MEL1 (Melanoma) [17] = assay: as above
Outline: as §1

[18] = system: NAMALWA (Burkitt's Lymphoma); assay: as above
Outline: as §1
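Wherever Bliss excess, mean over the matrix is given: after 72 h of two-drug dosing.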

Compound	Bliss excess (SK-N-SH (Neuroblastoma))	Bliss excess [1]	Bliss excess [2]	Bliss excess [3]	Bliss excess [4]	Bliss excess [5]	Bliss excess (NCI-H226 (Mesothelioma))	Bliss excess (ES6 (Ewing's Sarcoma) [6])	Bliss excess [7]	Bliss excess (IST-MEL1 (Melanoma) [8])	Bliss excess [9]	Bliss excess [10]	Bliss excess [11]	Bliss excess [12]	combination Emax [13]	combination Emax [14]	combination Emax [15]	combination Emax (ES6 (Ewing's Sarcoma) [16])	combination Emax (IST-MEL1 (Melanoma) [17])	combination Emax [18]
C[C@@H](Nc1cc(F)cc(F)c1)c1cc(C(=O)N(C)C)cc2c(=O)cc(N3CCOCC3)oc12 [AZD8186] + C1CN(CCC1(C(=O)N[C@@H](CCO)C2=CC=C(C=C2)Cl)N)C3=NC=NC4=C3C=CN4 [AZD5363] (first compound max 10 µM, 7x7, partner max 10 µM)	-0.0269	-0.0478	-0.0501	-0.0225	-0.0177	-0.0446	-0.0272	-0.0213	-0.0085	-0.013	-0.0276	0.0078	-0.0251	0.001	0.33	0.547	0.223	0.365	0.408	0.485
C[C@@H](Nc1cc(F)cc(F)c1)c1cc(C(=O)N(C)C)cc2c(=O)cc(N3CCOCC3)oc12 [AZD8186] + CC(=O)c1c(C)c2cnc(Nc3ccc(N4CCNCC4)cn3)nc2n(C2CCCC2)c1=O [Palbociclib] (first compound max 10 µM, 7x7, partner max 10 µM)	0.0108	-0.0198	-0.0435	-0.0661	0.0015	-0.0484	-0.0662	-0.0155	-0.0468	0.165	0.0328	0.0544	-0.0443	0.0122	0.262	0.654	0.295	0.412	0.545	0.616
C[C@@H](Oc1cc(-c2cnn(C3CCNCC3)c2)cnc1N)c1c(Cl)ccc(F)c1Cl [Crizotinib] + CC1=C(C(=CC=C1)Cl)NC(=O)C2=CN=C(S2)NC3=CC(=NC(=N3)C)N4CCN(CC4)CCO [Dasatinib] (first compound max 10 µM, 7x7, partner max 2 µM)	0.0049	-0.0989	-0.02	0.0166	-0.0512	-0.118	-0.0295	-0.0119	0.0051	0.0781	0.0487	0.0586	-0.0332	-0.0154	0.584	0.947	0.686	0.751	0.76	0.934
C[C@@H](Oc1cc(-c2cnn(C3CCNCC3)c2)cnc1N)c1c(Cl)ccc(F)c1Cl [Crizotinib] + Cn1cnc2c(F)c(Nc3ccc(Br)cc3Cl)c(C(=O)NOCCO)cc21 [Selumetinib] (first compound max 10 µM, 7x7, partner max 10 µM)	-0.0546	-0.0663	-0.0274	-0.0048	-0.0843	-0.0926	-0.0387	-0.0552	-0.0143	0.0273	-0.0514	-0.0259	-0.0114	-0.0463	0.62	0.991	0.791	0.59	0.454	0.937
CS(=O)(=O)CCNCc1ccc(-c2ccc3ncnc(Nc4ccc(OCc5cccc(F)c5)c(Cl)c4)c3c2)o1 [Lapatinib] + Cn1cnc2c(F)c(Nc3ccc(Br)cc3Cl)c(C(=O)NOCCO)cc21 [Selumetinib] (first compound max 10 µM, 7x7, partner max 10 µM)	-0.0123	-0.0085	0.0282	0.001	-0.0089	-0.0277	-0.0542	-0.0159	0.058	0.0279	0.0318	-0.0003	-0.0575	-0.0659	0.251	0.437	0.489	0.553	0.543	0.419
CS(=O)(=O)CCNCc1ccc(-c2ccc3ncnc(Nc4ccc(OCc5cccc(F)c5)c(Cl)c4)c3c2)o1 [Lapatinib] + NC1(c2ccc(-c3nc4ccn5c(=O)[nH]nc5c4cc3-c3ccccc3)cc2)CCC1 [MK-2206] (first compound max 10 µM, 7x7, partner max 10 µM)	-0.0194	-0.0202	0.0295	0.0359	0.0301	0.0368	-0.0287	-0.0408	0.0453	0.0095	0.0365	0.0388	0.0306	-0.0179	0.847	0.671	0.926	0.879	0.886	0.909
O=C(c1cc(Cc2n[nH]c(=O)c3ccccc23)ccc1F)N1CCN(C(=O)C2CC2)CC1 [Olaparib] + CC1(C)CCC(CN2CCN(c3ccc(C(=O)NS(=O)(=O)c4ccc(NCC5CCOCC5)c([N+](=O)[O-])c4)c(Oc4cnc5[nH]ccc5c4)c3)CC2)=C(c2ccc(Cl)cc2)C1 [Venetoclax] (first compound max 10 µM, 7x7, partner max 1 µM)	0.0412	-0.0439	-0.0389	-0.0695	-0.0413	-0.0266	-0.0428	-0.0549	-0.0524	0.0186	-0.0455	0.0044	-0.064	-0.0339	0.166	0.249	0.453	0.173	0.628	0.456
O=C(c1cc(Cc2n[nH]c(=O)c3ccccc23)ccc1F)N1CCN(C(=O)C2CC2)CC1 [Olaparib] + CN(CC[C@H](CSC1=CC=CC=C1)NC2=C(C=C(C=C2)S(=O)(=O)NC(=O)C3=CC=C(C=C3)N4CCC(CC4)[C@H](C5=CC=CC=C5C6=CC=C(C=C6)Cl)O)S(=O)(=O)C(F)(F)F)CCO [AZD4320] (first compound max 10 µM, 7x7, partner max 1 µM)	0.0025	-0.0247	0.0014	-0.0526	-0.0388	0.0013	-0.047	-0.0216	-0.0441	-0.0373	-0.0161	-0.0236	-0.0718	0.0167	0.856	0.431	0.636	0.237	0.171	0.396
O=C(c1cc(Cc2n[nH]c(=O)c3ccccc23)ccc1F)N1CCN(C(=O)C2CC2)CC1 [Olaparib] + COc1nnc2ccc(N3CCC(c4ccc(OCCN5CCN(C)C(=O)[C@H]5C)cc4)CC3)nn12 [AZD5153] (first compound max 10 µM, 7x7, partner max 1 µM)	-0.0402	-0.0557	-0.0461	-0.0383	-0.0339	-0.0426	-0.0749	-0.0941	-0.0698	-0.045	-0.0472	-0.0519	-0.0222	-0.153	0.369	0.882	0.757	0.292	0.252	0.751
O=C(c1cc(Cc2n[nH]c(=O)c3ccccc23)ccc1F)N1CCN(C(=O)C2CC2)CC1 [Olaparib] + Cc1c2c(nn1C)CSCc1cc(n(C)n1)CSc1cc(c3ccccc3c1)OCCCc1c(C(=O)O)n(C)c3c-2c(Cl)ccc13 [AZD5991] (first compound max 10 µM, 7x7, partner max 1 µM)	-0.0445	-0.0555	-0.0224	-0.0562	-0.0414	-0.0481	-0.0583	-0.0431	-0.0266	-0.0488	-0.0491	-0.0026	-0.0838	-0.063	0.215	0.993	0.501	0.168	0.101	0.979
N#Cc1cnc(Nc2cc(NC[C@H]3CNCCO3)c(C(F)(F)F)cn2)cn1 [SRA737] + CCc1c2c(nc3ccc(O)cc13)-c1cc3c(c(=O)n1C2)COC(=O)[C@]3(O)CC [SN-38] (first compound max 10 µM, 7x7, partner max 0.3 µM)	-0.0471	0.0694	0.0384	0.0311	0.083	-0.0022	-0.0592	-0.0423	-0.0351	-0.0613	0.007	-0.0123	0.0404	-0.0646	0.872	1	0.799	0.59	0.828	0.994
N#Cc1cnc(Nc2cc(NC[C@H]3CNCCO3)c(C(F)(F)F)cn2)cn1 [SRA737] + O=c1[nH]cc(F)c(=O)[nH]1 [5-Fluorouracil] (first compound max 10 µM, 7x7, partner max 20 µM)	-0.0499	-0.036	0.0006	0.0284	0.0936	-0.0821	-0.0281	-0.0508	0.0458	-0.0223	0.0952	0.0157	0.057	-0.0622	0.861	1	0.584	0.161	0.528	0.967
Cc1nc(-c2cn3c(n2)-c2ccc(-c4cnn(C(C)(C)C(N)=O)c4)cc2OCC3)n(C(C)C)n1 [Taselisib] + O=C(Nc1ccc2[nH]nc(-c3ccncc3)c2c1)[C@@H]1CCN(CC(=O)N2CCN(c3ccc(-c4ncccn4)cc3)CC2)C1 [SCH772984] (first compound max 10 µM, 7x7, partner max 5 µM)	0.0498	0.0196	0.0551	0.0751	0.0307	0.0145	0.0164	-0.0318	0.072	0.106	0.0899	0.0894	-0.0012	-0.0058	0.484	0.964	0.48	0.639	0.885	0.65
CC1(C)CCC(CN2CCN(c3ccc(C(=O)NS(=O)(=O)c4ccc(NCC5CCOCC5)c([N+](=O)[O-])c4)c(Oc4cnc5[nH]ccc5c4)c3)CC2)=C(c2ccc(Cl)cc2)C1 [Venetoclax] + CS(=O)(=O)CCNCc1ccc(-c2ccc3ncnc(Nc4ccc(OCc5cccc(F)c5)c(Cl)c4)c3c2)o1 [Lapatinib] (first compound max 1 µM, 7x7, partner max 10 µM)	0.008	-0.019	-0.0001	-0.0674	-0.0412	-0.0021	-0.0355	-0.0675	-0.0151	-0.0234	-0.0231	-0.0072	-0.047	-0.0665	0.148	0.353	0.473	0.585	0.293	0.25
